This is an account of results in US20070196914A1, “Methods for preparing oil bodies comprising active ingredients” (SemBioSys Genetics Inc., priority 2003, published 2007).

Series [1] is described as follows: Partitioning of phosphatidylcholine into washed safflower oil bodies (fluorescent tracer). The format is physicochemical, safflower (Carthamus tinctorius). As to conditions: average. The procedure: Washed safflower oil bodies were prepared as described in example 1. Oil bodies were preserved with 0.1% Neolone 950 and 0.1% glycacil L. Phosphatidylcholine (PC, Supplier-Sigma) was weighed (1-300 mg) into a clean and dry 16×100 mm screw-cap Pyrex test tube. A fluorescent tracer (phosphatidic acid, Supplier-Molecular Probes) was added to the PC. The amount used was 0.05-0.25% the weight of the PC of a 1 mg/ml solution of tracer (resuspended following the manufacturer's instructions). 200 ul of isopropanol was added for every 10 mg of PC to dissolve the PC/tracer mixture. Buffer (50 mM NaH2PO4, pH 8.0) was added to the isopropanol mixture using the same buffer (50 mM NaH2PO4, pH 8.0) as the oilbodies were made in. The volume was equivalent to the volume of oilbodies being loaded. The PC/tracer/isopropanol/buffer mixture was sonicated on high for 15-30 seconds. […] Both the wash fractions and the oilbody fractions were assessed for fluorescence quantities after extraction with hexane using a total oil extraction procedure. The total oil extraction was done by adding 4 mls of a 3:2 hexane:isopropanol solution (HIP) to a measured amount of the sample and shaking to mix vigorously until all of the oil was dissolved in the HIP solvent (about 10-20 seconds). […] A known quantity of isopropanol was added to the extracted fractions and the sample was quantitated using a fluorescent spectrophotometer. […]

Series [2] in a line: Partitioning of active into washed safflower oil bodies (free oil / total oil extraction, HPLC or absorbance). As to conditions: two-solvent loading, incubated overnight at 34-37° C. (CP 34-42° C.). Set-up: level of active incorporated into the oil bodies as a percentage of dry weight: concentration or dose not given beside the values. The format is physicochemical, safflower (Carthamus tinctorius). The source says: Hexane extraction may be used to determine the amount of active present in the free oil (free oil is defined as oil not contained within oil bodies. Note that the intact oil bodies are largely resistant to extraction by hexane alone). (Tzen et al. (1997) J. Biochem 121: 762-768.) Once the free oil has been removed from the active/oil body fraction, an analysis of the total remaining oil may be performed using for example, hexane:isopropanol, chloroform, or chloroform:methanol solution extraction. The amount of active present in both the free oil fraction and the total oil fraction can be determined by a number of methods including, but not limited to, high performance liquid chromatography (HPLC), spectrophotometry, fluorescence, or activity assays depending on the active. By comparing the amount of active in both the free oil fraction and the total oil fraction the average amount of active incorporated into the intact oil bodies can be determined. In general, the efficiency of partitioning of the active into intact oil bodies can range from about 10 to about 99.9%. More typically however the efficiency of partitioning of the active into intact oil bodies will range from about 50 to about 99% and most typically from about 90 to about 99.
Washed safflower oil bodies were prepared as described in example 1. Oil bodies were preserved with 0.1 % Neolone 950 and 0.1 % glycacil L. Clobetasol propionate (CP) (Supplier-Sigma) was weighed (12-30 mg) into a clean and dry 16×100 mm screw-cap Pyrex test tube and mixed with 300 μl of isopropanol then 200 mg of safflower oil. The combined sample was vortexed and subsequently incubated at 34° C. for 20 minutes. After incubation, the sample was re-vortexed then dried under nitrogen for 20 minutes to remove the isopropanol. One ml of washed high dry weight oil bodies were added to the CP/safflower oil mixture at room temperature, centrifuged briefly to pellet contents to allow for thorough mixing, vortexed and further incubated at 34-42° C. overnight in an air tight tube to allow for incorporation of the CP and safflower oil into the oil bodies. A hexane extraction was used to determine the amount of CP present in the free oil (free oil is defined as oil not contained within oil bodies. Note that the intact oil bodies are largely resistant to extraction by hexane alone but all hexane extractions of loaded oil bodies must be corrected for damage done to intact oil bodies by the hexane through corrections using free oil values obtained from unloaded oilbodies). Three ml of hexane are added to the tubes and the tubes are shaken to mix 32 times. The samples are centrifuged in a swinging bucket clinical centrifuge at 3220×g for one minute to separate hexane from the oil body-aqueous phase. Note that the free oil will remain in the hexane layer (top). The hexane layer is removed to another tube and the hexane extraction is repeated on the remaining CP/oil body mixture. Once the majority of the solvent from the second extraction is added to the tube containing the first extract, the hexane containing tube is transferred to a heating block. The hexane was evaporated by subjecting the tubes to a gentle stream of high purity N2 gas while heating the block to 40-45° C. for at least 1.5 hours. Once the free oil was removed from the CP/oil body fraction, an analysis of the total remaining oil was performed. The remaining total oil in intact oil bodies was determined by adding 4 ml of a 3:2 hexane:isopropanol solution (HIP) and shaking to mix vigorously until all of the oil was dissolved in the HIP solvent (about 10-20 seconds). This was followed by the addition of 2.5 ml of 6.67% Na2SO4 (w/v) to the tube and the tube was shaken for another 10 seconds. Phase separation is facilitated by centrifugation for 2 minutes at 3220×g in a swinging bucket clinical centrifuge. The organic or upper phase is removed to a second test tube using a Pasteur pipette while avoiding the transfer of the aqueous phase. […]

In the case of Phosphatidylcholine [PC], the “amount of PC loaded in to the membrane of the oil body, % of the dry weight of the oil body” value in series [1] (isopropanol/phosphate buffer pH 8.0, 37° C., without stearylamine) stood at 0.12%; in series [1] (stearylamine included in PC/tracer mixture at approximately 30% of the amount of PC), 1.25%.
Turning to `CCC(=O)O[C@]1(C(=O)CCl)[C@@H](C)C[C@H]2[C@@H]3CCC4=CC(=O)C=C[C@]4(C)[C@@]3(F)[C@@H](O)C[C@@]21C` [clobetasol propionate, (11β,16β)-21-chloro-9-fluoro-11-hydroxy-16-methyl-17-(1-oxopropoxy)pregna-1,4-diene-3,20-dione], in series [2], the “level of active incorporated into the oil bodies as a percentage of dry weight” value (“level … as a percentage of dry weight” below) is 0.316% and the “average % of the active added that was incorporated into the intact oil bodies” value (shortened to “average %”) turned out to be 94.7%.
On to `O=C(O)Cc1ccccc1Nc1c(Cl)cccc1Cl` [diclofenac], for which, in series [2], the “level … as a percentage of dry weight” value is reported as 1.36% and the “average %” value is reported as 43.9%.
For the compound `CCCCNc1ccc(C(=O)OCCN(C)C)cc1` [tetracaine, 4-(butylamino)-Benzoic acid, 2-(dimethylamino)ethyl ester], in series [2], the “level … as a percentage of dry weight” value amounted to 2.43% and the “average %” value is on record as 90.8%.
For `O=C1c2c(O)cccc2Cc2cccc(O)c21` [dithranol, 1,8-Dihydroxy-9(10H)-anthracenone], in that order: 0.253% and 97.3%.
